Earlier results on 2 compounds are cited in patent US7435725B2, “Oral compositions and methods for prevention, reduction and treatment of radiation injury” (The Quigly Corporation, priority 2001, dated 2008).

Each structure is given as a SMILES string.

The test system of data set [1] is Salmonella Typhimurium TA98 and TA 1538. To be noted: Trp-P-2 (3-amino-1-methyl-5H-pyrido(4,3-b)indole).

Take `O=C(O)C[CH2][Ge](=[O])[O][Ge](=[O])[CH2]CC(=O)O` [Ge-132]: the “reduction of mutations due to γ-radiation” value in the data set on E. coli B/r WP2 trp- is on record as “twenty-fold”. `[Ge+4].[O-2].[O-2]` [Germanium oxide]: the “reduction of mutation rate induced by Trp-P-2” value in data set [1] is 40-67 folds.
